Laboratory results reported in PubChem BioAssay AID1845211 (Molecular Pharmacology Branch, DTP, NCI, 2023).

Test system: NCI-H322M multicellular tumor spheroids, viability (% test/control)
Experiment: Anticancer human tumor NCI-H322M cell line growth inhibition;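 on viability, T/C: spheroids exposed to compound for seven days before readout; 100% = DMSO vehicle control wells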
Conditions: for IC50: curve of first compound; for viability, T/C: stronger effect = lower value
How it was run: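 Complex tumor spheroids combined malignant cells with endothelial cells and mesenchymal stem cells. DNA-damaging drugs and DNA repair inhibitors were tested alone and in combination, at half-log dilutions down from clinical Cmax (top 10 microM if Cmax unknown), 0.25% DMSO final.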

## CC(C)n1c(=O)n(C)c2cnc3cc(F)c(-c4ccc(OCCCN5CCCCC5)nc4)cc3c21 + Cn1nnc2c(C(N)=O)ncn2c1=O
Second compound 1 µM
  IC50: > 10 µM
Second compound 3.16 µM
  IC50: > 10 µM
Second compound 10 µM
  IC50: > 10 µM
Second compound 31.6 µM
  IC50: > 10 µM
Second compound 100 µM
  IC50: > 10 µM
Second compound 1 µM, first compound 0.0316 µM
  viability, T/C: 86.7%
Second compound 1 µM, first compound 0.1 µM
  viability, T/C: 82.1%
Second compound 1 µM, first compound 0.316 µM
  viability, T/C: 85%
Second compound 1 µM, first compound 1 µM
  viability, T/C: 95.4%
Second compound 1 µM, first compound 3.16 µM
  viability, T/C: 92%
Second compound 1 µM, first compound 10 µM
  viability, T/C: 77.9%
Second compound 3.16 µM, first compound 0.0316 µM
  viability, T/C: 83.8%
Second compound 3.16 µM, first compound 0.1 µM
  viability, T/C: 70.6%
Second compound 3.16 µM, first compound 0.316 µM
  viability, T/C: 83.1%
Second compound 3.16 µM, first compound 1 µM
  viability, T/C: 78.7%
Second compound 3.16 µM, first compound 3.16 µM
  viability, T/C: 81.3%
Second compound 3.16 µM, first compound 10 µM
  viability, T/C: 82.5%
Second compound 10 µM, first compound 0.0316 µM
  viability, T/C: 76.8%
Second compound 10 µM, first compound 0.1 µM
  viability, T/C: 84.7%
Second compound 10 µM, first compound 0.316 µM
  viability, T/C: 89.4%
Second compound 10 µM, first compound 1 µM
  viability, T/C: 98.5%
Second compound 10 µM, first compound 3.16 µM
  viability, T/C: 96.4%
Second compound 10 µM, first compound 10 µM
  viability, T/C: 79.1%
Second compound 31.6 µM, first compound 0.0316 µM
  viability, T/C: 94.9%
Second compound 31.6 µM, first compound 0.1 µM
  viability, T/C: 74.8%
Second compound 31.6 µM, first compound 0.316 µM
  viability, T/C: 81.9%
Second compound 31.6 µM, first compound 1 µM
  viability, T/C: 85.2%
Second compound 31.6 µM, first compound 3.16 µM
  viability, T/C: 98.2%
Second compound 31.6 µM, first compound 10 µM
  viability, T/C: 84.7%
Second compound 100 µM, first compound 0.0316 µM
  viability, T/C: 85%
Second compound 100 µM, first compound 0.1 µM
  viability, T/C: 93.4%
Second compound 100 µM, first compound 0.316 µM
  viability, T/C: 82.1%
Second compound 100 µM, first compound 1 µM
  viability, T/C: 88.5%
Second compound 100 µM, first compound 3.16 µM
  viability, T/C: 83%
Second compound 100 µM, first compound 10 µM
  viability, T/C: 87%

## Cc1sc2c(c1C)C(c1ccc(Cl)cc1)=NC(CC(=O)Nc1ccc(O)cc1)c1nnc(C)n1-2 (stereo not given) + Cn1nnc2c(C(N)=O)ncn2c1=O
Second compound 1 µM
  IC50: > 3 µM
Second compound 3.16 µM
  IC50: > 3 µM
Second compound 10 µM
  IC50: > 3 µM
Second compound 31.6 µM
  IC50: > 3 µM
Second compound 100 µM
  IC50: > 3 µM
Second compound 1 µM, first compound 0.00949 µM
  viability, T/C: 109%
Second compound 1 µM, first compound 0.03 µM
  viability, T/C: 105%
Second compound 1 µM, first compound 0.0949 µM
  viability, T/C: 134%
Second compound 1 µM, first compound 0.3 µM
  viability, T/C: 114%
Second compound 1 µM, first compound 0.949 µM
  viability, T/C: 81.2%
Second compound 1 µM, first compound 3 µM
  viability, T/C: 80.3%
Second compound 3.16 µM, first compound 0.00949 µM
  viability, T/C: 104%
Second compound 3.16 µM, first compound 0.03 µM
  viability, T/C: 113%
Second compound 3.16 µM, first compound 0.0949 µM
  viability, T/C: 120%
Second compound 3.16 µM, first compound 0.3 µM
  viability, T/C: 103%
Second compound 3.16 µM, first compound 0.949 µM
  viability, T/C: 87.6%
Second compound 3.16 µM, first compound 3 µM
  viability, T/C: 73.5%
Second compound 10 µM, first compound 0.00949 µM
  viability, T/C: 107%
Second compound 10 µM, first compound 0.03 µM
  viability, T/C: 124%
Second compound 10 µM, first compound 0.0949 µM
  viability, T/C: 129%
Second compound 10 µM, first compound 0.3 µM
  viability, T/C: 113%
Second compound 10 µM, first compound 0.949 µM
  viability, T/C: 90.2%
Second compound 10 µM, first compound 3 µM
  viability, T/C: 74.5%
Second compound 31.6 µM, first compound 0.00949 µM
  viability, T/C: 111%
Second compound 31.6 µM, first compound 0.03 µM
  viability, T/C: 130%
Second compound 31.6 µM, first compound 0.0949 µM
  viability, T/C: 120%
Second compound 31.6 µM, first compound 0.3 µM
  viability, T/C: 115%
Second compound 31.6 µM, first compound 0.949 µM
  viability, T/C: 91.2%
Second compound 31.6 µM, first compound 3 µM
  viability, T/C: 71.9%
Second compound 100 µM, first compound 0.00949 µM
  viability, T/C: 116%
Second compound 100 µM, first compound 0.03 µM
  viability, T/C: 124%
Second compound 100 µM, first compound 0.0949 µM
  viability, T/C: 116%
Second compound 100 µM, first compound 0.3 µM
  viability, T/C: 111%
Second compound 100 µM, first compound 0.949 µM
  viability, T/C: 92.7%
Second compound 100 µM, first compound 3 µM
  viability, T/C: 82%

## CC(C)n1c(=O)n(C)c2cnc3cc(F)c(-c4ccc(OCCCN5CCCCC5)nc4)cc3c21 + COc1cc2c(cc1O)CCNC21CSC2c3c(OC(C)=O)c(C)c4c(c3C(COC1=O)N1C(O)C3Cc5cc(C)c(OC)c(O)c5C(C21)N3C)OCO4
Second compound 30 pM
  IC50: > 10 µM
Second compound 94.9 pM
  IC50: > 10 µM
Second compound 0.0003 µM
  IC50: > 10 µM
Second compound 0.000949 µM
  IC50: 0.276 µM
Second compound 0.003 µM
  IC50: < 0.0316 µM
Second compound 30 pM, first compound 0.0316 µM
  viability, T/C: 74.8%
Second compound 30 pM, first compound 0.1 µM
  viability, T/C: 73.8%
Second compound 30 pM, first compound 0.316 µM
  viability, T/C: 74.4%
Second compound 30 pM, first compound 1 µM
  viability, T/C: 62.8%
Second compound 30 pM, first compound 3.16 µM
  viability, T/C: 64.2%
Second compound 30 pM, first compound 10 µM
  viability, T/C: 54.7%
Second compound 94.9 pM, first compound 0.0316 µM
  viability, T/C: 77.3%
Second compound 94.9 pM, first compound 0.1 µM
  viability, T/C: 64.4%
Second compound 94.9 pM, first compound 0.316 µM
  viability, T/C: 85.3%
Second compound 94.9 pM, first compound 1 µM
  viability, T/C: 69%
Second compound 94.9 pM, first compound 3.16 µM
  viability, T/C: 61.4%
Second compound 94.9 pM, first compound 10 µM
  viability, T/C: 62.5%
Second compound 0.0003 µM, first compound 0.0316 µM
  viability, T/C: 58.5%
Second compound 0.0003 µM, first compound 0.1 µM
  viability, T/C: 59.9%
Second compound 0.0003 µM, first compound 0.316 µM
  viability, T/C: 58.3%
Second compound 0.0003 µM, first compound 1 µM
  viability, T/C: 72.1%
Second compound 0.0003 µM, first compound 3.16 µM
  viability, T/C: 68.5%
Second compound 0.0003 µM, first compound 10 µM
  viability, T/C: 60%
Second compound 0.000949 µM, first compound 0.0316 µM
  viability, T/C: 63.8%
Second compound 0.000949 µM, first compound 0.1 µM
  viability, T/C: 69.2%
Second compound 0.000949 µM, first compound 0.316 µM
  viability, T/C: 45.3%
Second compound 0.000949 µM, first compound 1 µM
  viability, T/C: 42.2%
Second compound 0.000949 µM, first compound 3.16 µM
  viability, T/C: 46.6%
Second compound 0.000949 µM, first compound 10 µM
  viability, T/C: 57.1%
Second compound 0.003 µM, first compound 0.0316 µM
  viability, T/C: 5.32%
Second compound 0.003 µM, first compound 0.1 µM
  viability, T/C: 5.15%
Second compound 0.003 µM, first compound 0.316 µM
  viability, T/C: 3.05%
Second compound 0.003 µM, first compound 1 µM
  viability, T/C: 3.74%
Second compound 0.003 µM, first compound 3.16 µM
  viability, T/C: 6.35%
Second compound 0.003 µM, first compound 10 µM
  viability, T/C: 6.1%
